Experimental findings from patent US8507508B2, “Solid forms of pemetrexed” (Dr. Reddy's Laboratories Limited, priority 2007, dated 2013) are described below.

This series can be described thus: Physical stability on storage, checked by retention of the original XRPD pattern. The class given is physicochemical. From the text:
All XRPD data reported herein were obtained using a Bruker or PANalytical AXS D8 Advance Powder X-ray Diffractometer at Cu Kα radiation, having the wavelength 1.5418 Å. Since some margin of error is possible in the assignment of 2 theta angles and d-spacings, the preferred method of comparing X-ray powder diffraction patterns in order to identify a particular crystalline form is to overlay the X-ray powder diffraction pattern of the unknown form over the X-ray powder diffraction pattern of a known form. For all analytical data discussed in this application, it should be kept in mind that specific values depend on many factors, e.g., specific instrument, sample preparation and individual operator.
The obtained sample kept in a sealed polythene bag at a temperature of 20° C. to 25° C. for a period of 58 days to check the physical stability.
The obtained sample kept in a sealed polythene bag at a temperature of 20 to 25° C. for a period of 7 days to check the physical stability.
The obtained sample kept in a sealed polythene bag at a temperature of 20 to 25° C. for a period of 3 days to check the physical stability.
The sample was kept in a petri dish and stored at room temperature for a period of 24 hours to check the physical stability.

Turning to `Nc1nc2[nH]cc(CCc3ccc(C(=O)N[C@@H](CCC(=O)[O-])C(=O)[O-])cc3)c2c(=O)[nH]1.[Na+].[Na+]` [Example 1, Amorphous Pemetrexed Disodium], the “physical stability (XRPD and physical observation)” value (sealed polythene bag, 20° C. to 25° C., 58 days) is “retain its amorphous nature”. As for `Nc1nc2[nH]cc(CCc3ccc(C(=O)N[C@@H](CCC(=O)[O-])C(=O)[O-])cc3)c2c(=O)[nH]1.[Na+].[Na+]` [Example 3, Amorphous Pemetrexed Disodium], the “physical stability (XRPD)” value (sealed polythene bag, 20 to 25° C., 7 days) was “retain its amorphous form”. In the case of `Nc1nc2[nH]cc(CCc3ccc(C(=O)N[C@@H](CCC(=O)[O-])C(=O)[O-])cc3)c2c(=O)[nH]1.[Na+].[Na+]` [Example 4, Amorphous Pemetrexed Disodium], the “physical stability (XRPD)” value is recorded as “retain its polymorphic form” (petri dish, room temperature, 24 hours) and “retain its polymorphic form” (sealed polythene bag, 20 to 25° C., 3 days).
